In patent publication US20210267944A1 (BioXcel Therapeutics, Inc., priority 2018, published 2021):
Counter-ions that a name gives are not always drawn.

Assays:
[1] = human, in vivo
Description: In addition, we assessed the following Secondary Objectives: • a. Determine how rapidly the drug can be administered up to the total dose needed to achieve RASS −1. • b. Determine how long the calming effect persists after discontinuation of study drug administration. • c. Determine whether any adverse effects on blood pressure, heart rate, or respiratory drive occurs before or coincident with the achievement of Primary Objective. Stopping rules for blood pressure and heart rate, indicating a clinically significant event, are: • 1. drop in systolic BP<90 mm of Hg. • 2. drop in diastolic BP<60 mm of Hg • 3. drop below 50 beats per minute
The participants were continuously monitored during the study by the site personnel, including monitoring blood pressure and heart rate. Intermittent electrocardiograms were taken from the start of the infusion through resolution of the sedation and/or any adverse effects on blood pressure or heart rate.
Return to baseline parameters is defined as BP falling within 15 mm of Hg of baseline reading prior to drug administration or HR falling within 10 beats per minute of baseline reading prior to drug administration.

[2] = human, in vivo; remark: listed apart in the source

## Cc1cccc([C@H](C)c2cnc[nH]2)c1C [dexmedetomidine hydrochloride]
[1]
  Hemodynamic effects: All
  adverse effect on blood pressure (systolic and diastolic) and heart rate: no adverse effect
  infusion time at which stopping criteria of <60 mm Hg was met: 135 min
[2]
  Time to reach Cmax, range: 15 to 105 min
